Assay results as given in patent US20130059812A1 (priority 2010, published 2013).

How the values were obtained:
[1] = test system: patient-derived rtM204I mutant virus; assay type: cell-based, Hepatitis B virus (HBV); conditions: untreated control group = 100%, Huh-7 cells, 4th day, clevudine 0.9 μM, adefovir dipivoxil 6.3 μM, combination 0.9 μM+6.3 μM
Experimental: About 20˜24 hours before the transfection, Huh-7 cell lines were maintained on 6-well plates to be 4×10^5 cells/well with 70˜80% confluence and then cultured. 2 hours before the transfection, the culture medium was removed from the stabilized cells and replaced with a serum-free medium containing clevudine, adefovir dipivoxil or a combined formulation of clevudine and adefovir dipivoxil in a predetermined dilution to be 2 mL/well. Using lipofectamine (Invitrogen), the cells were transfected with HBV mutant DNA to be 2 μg per well. The concentration of antiviral agents was 0.9 μM of clevudine, 6.3 μM of adefovir dipivoxil, 0.9 μM+6.3 μM of clevudine+adefovir dipivoxil or 1.8 μM+6.3 μM of clevudine+adefovir dipivoxil. About 5 hours after the transfection, the culture medium was replaced with that treated with the antiviral agents, and then the medium was replaced every 24 hours.
On the 4th day of the transfection, the cells were washed with cold PBS and then collected. The collected cells were lysed with cold Hepes lysis buffer (1% NP-40) and then centrifuged. The supernatant was treated with nuclease to remove DNA of the transfected cells. Core protein of capsid form was precipitated with 26% PEG solution. The capsid protein was removed by 0.5% SDS solution and Proteinase K and then HBV DNA in the capsid was separated. […]

HBV = experiment: Antiviral efficacy test in the treatment of chronic hepatitis B patients; assay type: in vivo; conditions: n=20 per group
Experimental: A total of 40 patients were divided into two groups, to one of which 30 mg of clevudine was administered daily for 24 weeks (group treated with clevudine only; n=20). To another group, a combined formulation of 30 mg of clevudine and 10 mg of adefovir dipivoxil was administered daily for 12 weeks, then administration of adefovir dipivoxil was stopped and only 30 mg of clevudine was administered daily for the remaining period (group treated with combined formulation of clevudine+adefovir dipivoxil; n=20).

wild-type HBV = experiment: microbe, parasite or virus in culture; assay type: cell-based, Hepatitis B virus (HBV); conditions: Huh-7 cells, 4th day of transfection, clevudine 0.9 μM
Experimental: About 20˜24 hours before the transfection, Huh-7 cell lines were maintained on 6-well plates to be 4×10^5 cells/well with 70˜80% confluence and then cultured. 2 hours before the transfection, the culture medium was removed from the stabilized cells and replaced with a serum-free medium containing clevudine, adefovir dipivoxil or a combined preparation of clevudine and adefovir dipivoxil in a predetermined dilution to be 2 mL/well. Using lipofectamine (Invitrogen), the cells were transfected with wild-type HBV DNA to be 2 μg per well. The concentration of antiviral agents was 0.9 μM of clevudine, 6.3 μM of adefovir dipivoxil, 0.9 μM+6.3 μM of clevudine+adefovir dipivoxil or 1.8 μM+6.3 μM of clevudine+adefovir dipivoxil. About 5 hours after the transfection, the culture medium was replaced with that treated with the antiviral agents, and then the medium was replaced every 24 hours.
On the 4th day of the transfection, the cells were washed with cold PBS and then collected. […]
Electrophoresis was carried out with the separated HBV DNA on 1% agarose gel, which was then transferred to a positively charged nylon membrane. […] An antiviral effect of the combined formulation of clevudine and adefovir dipivoxil was determined using phosphor imager compared with single treatment of clevudine or adefovir dipivoxil.

Cc1cn([C@H]2O[C@@H](CO)[C@H](O)[C@H]2F)c(=O)[nH]c1=O [clevudine, 1-(2′-deoxy-2′-fluoro-β-L-arabinofuranosyl)thymine]
rate of mutant virus replication [1]: 87.43%
number of HBV DNA copy (HBV; 12 weeks after the administration, 30 mg clevudine daily, or 30 mg clevudine + 10 mg adefovir dipivoxil daily): −2.67 log 10 copies/mL
number of HBV DNA copy (HBV; 24 weeks after the administration, 30 mg clevudine daily for 24 weeks, or combination for 12 weeks then only 30 mg clevudine daily): −4.15 log 10 copies/mL
inhibition at 0.9 µM (wild-type HBV; Hepatitis B virus, concentration of the combination not stated, read-out: inhibition rate of wild-type HBV replication): 34.1%
rate of wild-type HBV replication (wild-type HBV; untreated control group = 100%, adefovir dipivoxil 6.3 μM, concentration of the combination not stated (0.9 μM+6.3 μM or 1.8 μM+6.3 μM)): 65.91%
